# Reference: patent publication US10301308B2, “Azetidine derivatives for tau imaging” (Eli Lilly and Company, priority 2015, dated 2019)
# Test system: native tau aggregates vs native β-amyloid aggregates in human brain sections
# Test: Autoradiography selectivity towards tau versus β amyloid in AD human brain tissue
# Assay type: binding
# Source text: Based on the anti-tau and anti-amyloid immunostaining results of brain sections, three groups of human brain sections are selected for autoradiography experiments to determine the native tau-binding selectivity of 3-(3-[18F]-fluoroazetidin-1-yl)-8-methylbenzo[4,5]imidazo[1,2-a]pyridine. Group A are tau-rich AD brain slices (labeled as Tau+Aβ+), Group B are tau-poor AD brain slices (marked as Tau-Aβ+), and Group C are Tau-Aβ− normal brain slices. […] The human AD brain sections in Group B are #33562, #32656, #33998, #35682, and #33563. The normal human brain sections in group C are #29092 and #32566. Tissue slices from the same donors are used to calculate selectivity for all three compounds for testing according to Assay Example 5. Autoradiography is performed for each of these three groups of brains on adjacent 10 μm sections with the amyloid tracer [18F]W372 to quantify the β-amyloid burden. [18F]W372 is a selective amyloid binding tracer discovered by Siemens and evaluated under IND 105173. Sections are covered with 0.5 ml of 3-(3-[18F]-fluoroazetidin-1-yl)-8-methylbenzo[4,5]imidazo[1,2-a]pyridine (in 2.5:2.5:95 DMSO:EtOH:1×PBS, about 20 μCi/slide) and incubated for 1.5 hrs. Then successive washing cycles (1 min PBS, 2 min 30% EtOH/PBS, 2 min 70% EtOH/PBS, 1 min PBS) are employed to remove any unbound tracer. The sections are air dried, placed on a phosphorimaging plate (Fuji IP plate), and exposed overnight. The IP plate is read using a GE Healthcare Life Sciences Typhoon FLA 7000 Phosphorimager. The signal intensity of the grey matter is measured using Fujifilm Multi Gauge software. After subtracting the background signal (signal in the cortex region of Group C), the signal of individual sections of Group A and B are normalized with corresponding signal from autoradiography of the respective adjacent sections with [18F]W372. The calculations are based on Group B brain sections #32656 and #33998, which have undetectable tau pathology by immunohistochemistry. The normalized signal for 3-(3-[18F]-fluoroazetidin-1-yl)-8-methylbenzo[4,5]imidazo[1,2-a]pyridine in Group B brain sections is the relative signal level of 3-(3-[18F]-fluoroazetidin-1-yl)-8-methylbenzo[4,5]imidazo[1,2-a]pyridine to [F-18]W372 resulting from binding to native β-amyloid aggregates. The binding level of 3-(3-[18F]-fluoroazetidin-1-yl)-8-methylbenzo[4,5]imidazo[1,2-a]pyridine to native tau-aggregates in Group A sections is estimated by subtracting the amount of the total signal attributable to binding to 3-amyloid (calculated by multiplying the total signal from [18F]W372 binding to β-amyloid in the adjacent section by the relative signal of 3-(3-[18F]-fluoroazetidin-1-yl)-8-methylbenzo[4,5]imidazo[1,2-a]pyridine to [18F]W372 determined from the Group B sections). The resulting difference is then divided by the signal attributable to binding to β-amyloid to estimate the selectivity of 3-(3-[18F]-fluoroazetidin-1-yl)-8-methylbenzo[4,5]imidazo[1,2-a]pyridine. […] The selectivity of 3-(3-[18F]-fluoroazetidin-1-yl)-8-methylbenzo[4,5]imidazo[1,2-a]pyridine binding to native tau aggregates vs. binding native β-amyloid aggregates is reflected by the ratio of Group A (Tau+Aβ+) signal to the signal of the brain sections #32656 and #33998.
smiles,measurement,setting,value
"Cc1ccc2nc3cc(N4CC([18F])C4)ccn3c2c1 [Compound 8, 3-(3-[18F]-fluoroazetidin-1-yl)-8-methylbenzo[4,5]imidazo[1,2-a]pyridine]",selectivity ratio for Tau:Aβ,5 Tau+Aβ+ and 2 Tau-Aβ+ brain specimens,approximately 26.6±4.5
same,autoradiography signal on grey matter (cortex region),Group A (Tau+Aβ+) sections,Strong signal
same,autoradiography signal on cortex regions,Group B (Tau-Aβ+) sections,weak or no signal
same,autoradiography signal,Group C (Tau-Aβ−) normal brain sections,No autoradiography signal
same,grey matter to white matter (GM/WM) signal ratio,"autoradiography, Tau+Aβ+ brain specimens",approximately 17.3±1.7
same,selectivity of binding to native tau aggregates vs native β-amyloid aggregates,grey matter region of human AD brains,approximately 27 fold
same,"autoradiography signal on normal brain sections, grey vs white matter",normal brain sections,weak and even
